Results on 2 compounds are retold here after patent US20070141141A1, “Pharmaceutical composition” (ASTRAZENECA AB, priority 2003, published 2007).

A short description of data set [1]: pH shift dissolution test (pH 1.5 to 6.5). Type of data set: physicochemical. Particulars: for % Agent in Solution t = 2 mins: 2 minutes after adjustment of medium from pH 1.5 to pH 6.5, 37° C.; for % Agent in Solution t = 30 mins: 30 minutes after adjustment of medium from pH 1.5 to pH 6.5, 37° C.; for % Agent in Solution t = 60 mins: 60 minutes after adjustment of medium from pH 1.5 to pH 6.5, 37° C.; for % Agent in Solution t = 0 (˜pH 1.5): % by weight dissolved after 60 minutes in 0.07N HCl/0.2% NaCl medium, 37° C., before pH shift, >100% from HPLC experimental error; for Mean pH of medium at 60 minutes after pH adjustment (n = 2): pH shift test, 60 minutes after adjustment from pH 1.5 to pH 6.5. The protocol:
The vial was then rinsed with a further 50 ml of fresh dissolution medium and the washings added to the main dissolution medium to ensure complete transfer of the composition (total volume of medium 500 ml). The Control sample was weighed into a volumetric flask and pre-dissolved in 50 ml of dissolution medium via sonication. The composition was then added to 400 ml of dissolution medium. The flask was rinsed with a further 50 ml of fresh dissolution medium and the washings added to the main dissolution medium to ensure complete transfer of the composition (total volume of medium=500 ml). After 60 minutes at 37° C. (paddle speed 100 rpm) a sample (5 ml) was taken and 5 ml of fresh medium was added to retain a constant volume of dissolution medium.
The resulting solution was then made up to 100 ml with MilliQ water.
Samples (5 ml) were then removed with a plastic syringe at 2, 5, 15, 30, 45 and 60 minutes after pH adjustment and fresh medium (pH 6.5) added to maintain a constant volume of dissolution medium. […] ODS-3^1. (with guard) • detection wavelength: 247 nm • flow rate: 0.9 ml/min • injection volume: 20 μl • retention time: approximately 6 minutes
Footnote: column ex Hichrom containing 3 μm beads.

Data set [2] can be described thus: pH 6.5 dissolution test. Type of data set: physicochemical. To be noted: for % Agent in solution after 5 minutes in pH 6.5 medium / % Agent in solution after 30 minutes in pH 6.5 medium / % Agent in solution after 60 minutes in pH 6.5 medium: 37° C., 500 ml, 250 mg Agent; for Mean pH of medium at 60 minutes (n = 2) / Mean pH of medium at end of experiment (n = 2): pH 6.5 dissolution test; for Mean pH of medium at end of experiment (n = 2): final pH measured after 60 minutes. The protocol: The following test measures dissolution of a composition in a pH 6.5 dissolution medium and simulates the pH environment found in the upper intestine.
The composition to be tested was placed into a 500 ml of a stirred dissolution medium at pH 6.5 at 37° C. (paddle speed 100 rpm). […] A fresh sample of dissolution medium was added after every sampling time point to maintain a constant volume of 500 ml dissolution medium throughout the test.
The vial was then rinsed with a further 50 ml of fresh dissolution medium and the washings added to the main dissolution medium to ensure complete transfer of the composition (total volume of dissolution medium=500 ml).

The nature of data set [3]: pKa and pH dependent aqueous solubility of the Agent. Type of data set: physicochemical.
The subject of data set [4] is non-small-cell lung cancer. To be noted: 250 mg/day, non-small-cell lung cancer patients, IDEAL 1 and 2; cited from earlier work.

A value given as a limit tells only on which side of the number the result lay.

Turning to `COc1cc2ncnc(Nc3ccc(F)c(Cl)c3)c2cc1OCCCN1CCOCC1` [Comparative 4, 4-(3′-chloro4′-fluoroanilino)-7-methoxy-6-(3-morpholinopropoxy)quinazoline], in data set [1], the “% Agent in Solution t = 2 mins” value is 19.56%, the “% Agent in Solution t = 30 mins” value stood at 5.16%, the “% Agent in Solution t = 60 mins” value came out at 3.30% and the “% Agent in Solution t = 0 (˜pH 1.5)” value was found to be 97.74%. The “Mean pH of medium at 60 minutes after pH adjustment (n = 2)” value in data set [1] is 6.32. In data set [2], the “% Agent in solution after 5 minutes in pH 6.5 medium” value is 3.52%, the “% Agent in solution after 30 minutes in pH 6.5 medium” value amounted to 1.54%, the “% Agent in solution after 60 minutes in pH 6.5 medium” value (from here on “% Agent in solution after 60 minutes”) was 1.21% and the “Mean pH of medium at 60 minutes (n = 2)” value is 6.33. Besides, in data set [2], the “Mean pH of medium at end of experiment (n = 2)” value came to 6.33. Further, in data set [2] (listed as Comparative Example 4), the “% Agent in solution after 60 minutes” value is on record as 1.21%.

For orientation: pKa means the negative logarithm of the acid dissociation constant. With `COc1cc2ncnc(Nc3ccc(F)c(Cl)c3)c2cc1OCCCN1CCOCC1` [Agent, 4-(3′-chloro4′-fluoroanilino)-7-methoxy-6-(3-morpholinopropoxy)quinazoline], the “Solubility (in words)” value in data set [3] (free-base form, above pH 7) is “practically insoluble”. Further, the “Solubility (in words)” value in data set [3] (free-base form, pH 1) is “soluble”. Further, the “Solubility: aqueous solvent required to dissolve 1 g of Agent” value in data set [3] (free-base form, pH 6) was no less than 10000 mL. The compound also returned a pKa in data set [3] (two basic groups) of roughly 5.3. In addition, in data set [1] (listed as Control), the “% Agent in Solution t = 2 mins” value is given as 6.50%, the “% Agent in Solution t = 30 mins” value is 3.04%, the “% Agent in Solution t = 60 mins” value turned out to be 2.27% and the “% Agent in Solution t = 0 (˜pH 1.5)” value is listed as 102.61%. Also, the “Mean pH of medium at 60 minutes after pH adjustment (n = 2)” value in data set [1] (listed as Control) turned out to be 6.55. Further, in data set [2] (listed as Control), the “% Agent in solution after 5 minutes in pH 6.5 medium” value turned out to be 0.70%, the “% Agent in solution after 30 minutes in pH 6.5 medium” value turned out to be 1.52%, the “% Agent in solution after 60 minutes” value amounted to 1.40% and the “Mean pH of medium at 60 minutes (n = 2)” value is recorded as 6.52. The “Mean pH of medium at end of experiment (n = 2)” value in data set [2] (listed as Control) is 6.52. Also, in data set [4], the adverse events entry was “majority of adverse events generally being mild to moderate skin and gastrointestinal disorders”; the response rates is 11.8-18.4%.
